{
  "source": "patent US10648917B2",
  "about": "“Luminescent compositions and applications thereof” (THE PENN STATE RESEARCH FOUNDATION, priority 2015, dated 2020)",
  "type_in_all_cases": "physicochemical",
  "key": {"[1]": {"experiment": "Photostability under continuous excitation for 3 hours", "conditions": "for photobleaching relative to Fluorescein and Rhodamine B: 3 hours continuous excitation", "method": "(§1) Fluorescence spectra were recorded by a Horiba FluoroMax-4 spectrofluorometer. All samples were measured at a concentration corresponding to an optical density of 0.1 in water and a slit size of 1 nm by 1 nm unless specified. Quantum yields were also determined on same spectrofluorometer by using a Quantum-φ integration sphere at samples' maximum excitation wavelength and at an increment of 0.3 nm. Photostability studies were done by continuously exciting samples at their maximum excitation wavelength and monitoring at the maximum emission wavelength.\n(§2) Fluorescence spectra were recorded on a Horiba FluoroMax-4 spectrofluorometer (Horiba Scientific, Edison N.J.). All polymer and samples were characterized at a concentration of 2 wt % in 1,4-dioxane and a slit size of 1 nm by 1 nm unless otherwise specified. The fluorescence properties of small molecule dyes were also measure in 2 wt % DI water solutions at same conditions as polymer solutions. BPLPs were also degraded in 1M K2CO3 solution at 37° C. for 24 hours and then neutralized with 1N HCl solution to pH7. The resulting degradation solutions were subject to further PL characterizations. Quantum yields were also determined on the same spectrofluorometer by using a Quantum-φ integration sphere (Horiba Scientific, Edison N.J.) at the same concentration and slit size with the blank solvent as the reference. Photostability of small molecules and polymers were determined by monitoring the emission intensity decay at their max. Excitation and emission wavelengths over 3 hours of continuous lumination in the spectrofluorometer.\nPhotostability of CFDs was characterized thereafter, since traditional organic dyes suffer from photobleaching. Various CFDs were tested under their maximum excitation and emission wavelengths for 3 hours, and the photoluminescence was normalized to the initial intensity."}, "[2]": {"experiment": "Fluorescence spectra, absorbance and quantum yield (spectrofluorometer, integration sphere)", "conditions": "for Shifting (emission shifting with excitation wavelength): CFD dyes; for Φ (quantum yield) / λem (maximum emission wavelength) / λex (maximum excitation wavelength) / ϵ (extinction coefficiency): Table III", "method": "Fluorescence spectra were recorded by a Horiba FluoroMax-4 spectrofluorometer. All polymer and small molecule samples were measured at a concentration of 2% w/w in 1,4-dioxane or DI water and a slit size of 1 nm by 1 nm unless otherwise specified. Quantum yields were also determined on the same spectrofluorometer by using a Quantum-φ integration sphere at the same concentration and slit size with the blank solvent as the reference. ^1H-NMR, ^13C-NMR were performed on a JNM ECS 300 spectrometer using DMSO-d6 or D2O as solvents. Attenuated total reflection Fourier transform infrared (ATR-FTIR) spectra were collected with a Bruker V70 spectrometer using BPLP films. A Shimadzu HPLC-MS system with a Phenomenex Kinetex 2.6u XB-C18 100 mm×2.9 mm column, a SPD M20A PDA detector and a RF-20AXS fluorescence detector (Ex. 360 nm and Em. 430 nm) was used to characterize the structures of fluorophores as well. The mobile phase was a gradient of DI water and acetonitrile with 0-6 min 2% acetonitrile, 6-12 min 2%-30% acetonitrile, and 12-15 min 2% acetonitrile. The flow rate was 0.15 ml/min. Electrospray ionization mass spectroscopy (ESI-MS) was performed with a positive voltage of 4.5 kV and negative mode voltage −4.0 kV and a CDL temperature of 200° C. The analysis of the degradation products of BPLPs were conducted by immersing BPLPs in 1M K2CO3 solution at 37° C. for 24 hours. After degradation, the solutions were neutralized by 1N HCl solution to pH 7 and characterized by HPLC-MS as described above.\nas §1, §2\n(§3) Absorbance Spectra were recorded on Tecan Infinite M200 Pro UV-vis spectroscopy, and fluorescence spectra were recorded on Horiba FluoroMax-4 fluorospectroscopy at concentrations below 0.1 O.D. unless otherwise indicated. Quantum Yields were measured on the Quantum φ Integrating Sphere accessory to the FluoroMax-4, while lifetime measurements were determined through the Time-Correlation Single Photon Counting (TCSPC) accessory to the FluroMax-4. TCSPC was utilized in conjunction with NanoLED pulsed diode light source with peak excitation wavelength at 352 nm and at 10,000 counts peak preset. Emission was collected at the fluorescence λmax, unless otherwise indicated. For all pH-dependence experiments, sample pH was adjusted with sulfuric acid or sodium hydroxide. For all chloride-dependent quenching experiments, magnesium chloride hexahydrate (Sigma Aldrich) was used."}, "[3]": {"experiment": "Time-resolved fluorescence lifetime (TCSPC)", "method": "Fluorescence lifetimes were determined by using the Time-Correlation Single Photon Counting (TCSPC) accessory to the FluroMax-4 (Horiba, NJ). NanoLED pulse light sources at wavelengths of 352 nm and 390 nm were used for excitation. For each decay curve, 10,000 photons were collected. Fluorescence lifetime decays were fitted with an exponential series according to equation 1 below:\n[formula] where F(t) is the lifetime decay function with respect to time t, Ti is the lifetime value of the emitting species, A is the background offset, and Bi is the pre-exponential function of the emitting species. The method of least squares was used to quantify χ^2 based on the decay data and the fitting function, where χ^2 values smaller than 1.2 indicates a good fit; and values above 1.2 indicate need for multiple exponential fitting in equation 1. If the lifetime decay is dominated by one emitting species, the equation can be simplified to include only the first two terms. One exponential fitting is good for TPA based fluorophores. However, for DPR based fluorophores, only three exponential fitting gives a χ^2 smaller than 1.2. E. Computational Modeling\nas §3\nFluorescence lifetime decays were fitted with an exponential series according to equation 5 below:\n[formula] Where F(t) is the lifetime decay function with respect to time t, Ti is the lifetime value of the emitting species, A is the background offset, and Bi is the pre-exponential function of the emitting species. If the lifetime decay is dominated by one emitting species, the equation can be simplified to include only the first two terms. Bi measures the relative amplitude of the specified fluorophore, where the percent contribution of the fluorophore to the lifetime decay, f, is derived from equation 6:\n[formula] The method of least squares was used to quantify χ^2 based on the decay data and the fitting function, where χ^2 values under 1.2 indicates a good fit, and values above 1.2 indicate need for additional terms in equation 5. Typically, an additional exponential term was necessary to improve the χ^2 value and account for the presence of a negligible 6 ns species, deemed to stem from by-products of CFD synthesis, impurities, or CFD dimers. Since the contribution from this species was minor, often less than 5%, it was not included in lifetime analysis."}, "[4]": {"conditions": "Dianion protolytic state (physiological pH)"}},
  "note": "Read-outs that look alike come from different tables or passages of the source.",
  "data": [
    {"compound": "CC(C(=O)O)N1C(=O)C=C(C(=O)O)CC1=O", "note": "(stereo not shown) [CA-Ala]", "values": [
      {"measurement": "photobleaching relative to Fluorescein and Rhodamine B", "setting": "[1]", "result": "photobleaching on par with Fluorescein but more resistant than Rhodamine B"},
      {"measurement": "Shifting (emission shifting with excitation wavelength)", "setting": "[2]", "result": "Yes"},
      {"measurement": "Φ (quantum yield)", "setting": "[2]", "result": 21.2, "unit": "%"},
      {"measurement": "λem (maximum emission wavelength)", "setting": "[2]", "result": 430, "unit": "nm"},
      {"measurement": "λex (maximum excitation wavelength)", "setting": "[2]", "result": 361, "unit": "nm"},
      {"measurement": "ϵ (extinction coefficiency)", "setting": "[2]", "result": 79, "unit": "M⁻¹ cm⁻¹"},
      {"measurement": "band-shift effect", "setting": "[2]; in acetone (ε=20.7)", "result": "moderate"},
      {"measurement": "band-shift effect", "setting": "[2]; in dichloromethane (ε=8.93)", "result": "minimal"},
      {"measurement": "band-shift effect", "setting": "[2]; in water (ε=80.1)", "result": "strongest"},
      {"measurement": "Max. Em. Wavelength", "setting": "[2]; representative CFDs, Table I", "result": 430, "unit": "nm"},
      {"measurement": "Max. Ex. Wavelength", "setting": "[2]; representative CFDs, Table I", "result": 361, "unit": "nm"},
      {"measurement": "Quantum Yield", "setting": "[2]; representative CFDs, Table I", "result": 21.2, "unit": "%"},
      {"measurement": "fluorescence lifetime τ1", "setting": "[3]; three exponential model", "result": 0.95, "unit": "ns"},
      {"measurement": "fluorescence lifetime τ2", "setting": "[3]; three exponential model", "result": 4.44, "unit": "ns"},
      {"measurement": "fluorescence lifetime τ3", "setting": "[3]; three exponential model", "result": 10.35, "unit": "ns"}
    ]},
    {"compound": "O=C(O)c1cc2n(c(=O)c1)C(C(=O)O)CS2", "note": "(stereo not shown) [CA-Cys]", "values": [
      {"measurement": "photobleaching relative to Fluorescein and Rhodamine B", "setting": "[1]", "result": "less stable"},
      {"measurement": "photostability", "setting": "[1]; FIG. 19", "result": "strong photostability"},
      {"measurement": "luminescence lost", "setting": "[1]; after 3 hours continuous excitation", "result": "less than 3%"},
      {"measurement": "fluorescence remaining", "setting": "[1]; after continuous UV excitation for 3 hours", "result": 95, "unit": "%"},
      {"measurement": "Quantum Yield", "setting": "[2]", "result": "≤ 81", "unit": "%"},
      {"measurement": "extinction coefficient", "setting": "[2]", "result": 8640, "unit": "M⁻¹ cm⁻¹"},
      {"measurement": "Abs. Max", "setting": "[2]; Anion protolytic state", "result": 354, "unit": "nm"},
      {"measurement": "Em. max", "setting": "[2]; Anion protolytic state", "result": 440, "unit": "nm"},
      {"measurement": "Exc. max", "setting": "[2]; Anion protolytic state", "result": 360, "unit": "nm"},
      {"measurement": "Stokes shift", "setting": "[2]; Anion protolytic state", "result": 80, "unit": "nm"},
      {"measurement": "Φ", "setting": "[2]; Anion protolytic state", "result": 67.24, "unit": "%"},
      {"measurement": "ε", "setting": "[2]; Anion protolytic state", "result": 7454, "unit": "M⁻¹ cm⁻¹"},
      {"measurement": "Shifting (emission shifting with excitation wavelength)", "setting": "[2]", "result": "no fluorescence band shifting was observed and No"},
      {"measurement": "Abs. Max", "setting": "[2]; Dianion protolytic state", "result": 346, "unit": "nm"},
      {"measurement": "Em. max", "setting": "[2]; Dianion protolytic state", "result": 418, "unit": "nm"},
      {"measurement": "Exc. max", "setting": "[2]; Dianion protolytic state", "result": 350, "unit": "nm"},
      {"measurement": "Stokes shift", "setting": "[2]; [4]", "result": 67, "unit": "nm"},
      {"measurement": "Φ", "setting": "[2]; [4]", "result": 81.20, "unit": "%"},
      {"measurement": "ε", "setting": "[2]; [4]", "result": "~8640", "unit": "M⁻¹ cm⁻¹"},
      {"measurement": "Abs. Max", "setting": "[2]; Neutral protolytic state", "result": 362, "unit": "nm"},
      {"measurement": "Em. max", "setting": "[2]; Neutral protolytic state", "result": 445, "unit": "nm"},
      {"measurement": "Exc. max", "setting": "[2]; Neutral protolytic state", "result": 366, "unit": "nm"},
      {"measurement": "Stokes shift", "setting": "[2]; Neutral protolytic state", "result": 80, "unit": "nm"},
      {"measurement": "Φ", "setting": "[2]; Neutral protolytic state", "result": "Quenched"},
      {"measurement": "ε", "setting": "[2]; Neutral protolytic state", "result": "~8300", "unit": "M⁻¹ cm⁻¹"},
      {"measurement": "Φ (quantum yield)", "setting": "[2]", "result": 81.4, "unit": "%"},
      {"measurement": "λem (maximum emission wavelength)", "setting": "[2]", "result": 445, "unit": "nm"},
      {"measurement": "λex (maximum excitation wavelength)", "setting": "[2]", "result": 364, "unit": "nm"},
      {"measurement": "ϵ (extinction coefficiency)", "setting": "[2]", "result": 8640, "unit": "M⁻¹ cm⁻¹"},
      {"measurement": "quenching in organic solvents compared to water", "setting": "[2]; dioxane, acetone, ethanol, isopropanol, DMSO", "result": "minimal quenching"},
      {"measurement": "Max. Em. Wavelength", "setting": "[2]; representative CFDs, Table I", "result": 445, "unit": "nm"},
      {"measurement": "Max. Ex. Wavelength", "setting": "[2]; representative CFDs, Table I", "result": 364, "unit": "nm"},
      {"measurement": "Quantum Yield", "setting": "[2]; representative CFDs, Table I", "result": 81.4, "unit": "%"},
      {"measurement": "τ", "setting": "[3]; Anion protolytic state", "result": 11.19, "unit": "ns"},
      {"measurement": "τ", "setting": "[3]; [4]", "result": 10.06, "unit": "ns"},
      {"measurement": "τ", "setting": "[3]; Neutral protolytic state", "result": "Quenched"},
      {"measurement": "fluorescence lifetime τ", "setting": "[3]; one-exponential decay, pulsed excitation at 352 nm, maximum emission wavelength", "result": 10.46, "unit": "ns"}
    ]}
  ]
}
